Reference: patent US20240277767A1, “METHODS AND USES” (PROLEUKOCYTE AB, priority 2021, published 2024)

Experiments:
Assay type in all cases: cell-based, human
[1] = tested on: NK cells; assay: [Cr51]-release assay: lysis of tumour target cells by pre-treated NK cells after H2O2 exposure; details: for Lysis of K562 target cells by pre-treated NK cells after H2O2 exposure: 18 h pre-treatment, H2O2 1 h up to 250 μM, E:T 9:1, vs control NK cells; for Suppressive effect of H2O2 on lymphocyte function (killing, degranulation, IFNγ): expanded NK cells and patient derived TIL, pre-treatment; for Dependence of the protective effect on Nrf2 activation: qPCR of Nrf2 target genes and K562 lysis with/without Nrf2 inhibitor ML385
Excerpt: Peripheral blood samples (anonymized by-products of blood donations from healthy adult donors) were purchased from Karolinska University Hospital Blood Bank. Peripheral blood mononuclear cells (PBMC) were isolated from healthy donor buffy coats using density centrifugation with Ficoll® Paque Plus (GE Healthcare). NK cells and CD14^+ monocytes were isolated from PBMCs using NK cell isolation kit or CD14^+ microbeads, respectively (both Miltenyi Biotec), following the manufacturer's instructions. For NK cell expansion, a EBV-LCL feeder cell line was used, irradiated at 100 gy and then co-cultured with NK cells, at the ratio 10:1 LCL:NK, in X-Vivo 20 (Lonza) supplemented with 10% human AB serum and 1000 U/mL IL-2 (Proleukin). From day 6 or 10, NK cells were kept at 0.5×10^6 cells/mL or 1×10^6/mL, respectively. Purity of expanded NK cell was assessed at day 10 by flow cytometry, see below.
Lymphocytes were pre-treated for 18 h with Auranofin (AUF, with the concentration 1 μg/mL for NK cells and 0.5 μg/mL for TIL, if not indicated differently), DL-Sulforaphane (SUL) or Dimethyl Fumarate (DMF) (all Sigma-Aldrich) at indicated concentrations.
(§1) For Nrf2 inhibition, NK cells were treated with 50 μM ML-385 (Sigma-Aldrich) in parallel. For H2O2 treatment, lymphocyte cells were washed and resuspended to 1×10^6 cells/mL in medium and exposed to indicated H2O2 (Sigma-Aldrich) concentration for 1 h at 37° C. Cells were washed with medium and then used for further experiments. For monocyte experiments, autologous NK cell-monocytes or TIL-monocytes were used. NK cells/TIL were isolated and pre-treated with 0.5 μg/mL AUF, as described above, and co-cultured with unstimulated at the ratio, 1:2 M:NK, or stimulated monocytes at the ratio, 1:1 M:NK, if not indicated otherwise. Stimulated monocytes were activated with 100 ng/ml PMA for 1 min, washed and added at indicated ratio, the number of NK cell/TIL was kept constant. As control, H2O2 was used at indicated concentration. Cells were co-cultured for 2 h and then effector cells were stained for intracellular ROS (see flow cytometry) or used as effector cells in Cr^51 release assay (E:T ratio 10:1).
(§2) For cytotoxic assay, a standard 4 h [Cr^51]-release assay was used. Briefly, tumour cells were harvested and labeled with 51Cr (PerkinElmer) and used as target cells. Effector cells, NK cells and T cells, were co-cultured in 96-well V-bottom plate with indicated tumour cells at the stated effector target ratio (E:T). The supernatant was collected onto LUMA plates (Perkin-Elmer) and radioactivity/tumour cell lysis was detected by MicroBeta2 (Perkin Elmer). Target cell killing measured by % specific lysis and calculated using the formula: ((experimental release-spontaneous release)/(maximum release-spontaneous release))*100.
Lymphocytes were pre-treated for 18 h with Auranofin (AUF, with the concentration 1 μg/mL for NK cells and 0.5 μg/mL for TIL. As AUF was reconstituted in DMSO, control NK cells were pre-treated with DMSO with an equivalent volume to the highest compound concentration. For N-acetylcysteine (NAC, Invitrogen) treatment, DMSO pre-treated cells were incubated for 1 h with 5 or 10 mM NAC prior to H2O2 treatment. For H2O2 treatment, lymphocytes were washed and resuspended to 1×10^6 cells/mL in RPMI containing the indicated H2O2 (Sigma-Aldrich) concentration for 1 h at 37° C. 5% CO2. Cells were washed with medium and then used for further experiments.

[2] = tested on: tumour infiltrating lymphocytes (TIL); assay: IFNγ release by pre-treated TIL on autologous tumour cells after H2O2 treatment; details: KADA and ANRU melanoma TIL, E:T 4:1, vs control group
Experimental: ., 2020). […] For Nrf2 inhibition, NK cells were treated with 50 μM ML-385 (Sigma-Aldrich) in parallel. […] Cells were washed with medium and then used for further experiments. For monocyte experiments, autologous NK cell-monocytes or TIL-monocytes were used. […] Stimulated monocytes were activated with 100 ng/ml PMA for 1 min, washed and added at indicated ratio, the number of NK cell/TIL was kept constant. […] For cytokine release assay, NK cells and TIL were cultured with indicated tumour cells at the effector target ratio 4:1 (E:T) for 24 h in U-bottom plates. IFNγ secretion was measured using human IFN-γ ELISA development kit (Mabtech) following the manufacturer's instructions.

[3] = tested on: Nrf2 target genes (NQO1, HMOX1, TXNRD1, Keap1); assay: qPCR of classical Nrf2 target genes in NK cells; details: kinetic, fold change vs untreated
Experimental: Lymphocytes were pre-treated with AUF, SUL or DMF as described above. RNA was isolated using TRIzol™ Plus RNA Purification Kit (Invitrogen). cDNA was generated using the iScript™ cDNA Synthesis Kit (Bio-Rad) and qPCR was done using iTaq™ Universal SYBR® Green Supermix (Bio-Rad) in the CFX96 Touch Real-Time PCR Detection System (Bio-Rad). Fold change expression from untreated cells was calculated using the 2^-ΔΔCt formula with b-actin as reference gene. Evaluated genes were NAD(P)H Quinone Dehydrogenase 1 (NQO1), Kelch Like ECH Associated Protein 1 (Keap1), Heme Oxygenase 1 (HMOX1) and Thioredoxin Reductase 1 (TXNRD1).

[4] = tested on: NK cells; assay: ADCC: NK cells with RAJI cells coated with Rituximab or Ofatumumab; details: Rituximab 0.5 μg/mL or Ofatumumab 0.05 μg/mL, E:T 9:1
Experimental: Lymphocytes were isolated and pre-treated when indicated, with compound and H2O2, as described above. For degranulation/measuring CD107a expression, NK cells were co-cultured with K562 tumour cells at an effector target ratio 1:1 in the presence of anti-CD107a in U-bottom plates. After 2 h, GolgiStop™ and GolgiPlug™ (BD Bioscience) were added and cells were harvested after an additional 4 h co-culture and stained for CD56 and CD3, as described above. For positive control, 25 ng/ml PMA (Sigma Aldrich) and 500 ng/mL Ionomycin (Sigma Aldrich) were added.
as §2
For analyzing ADCC, NK cells were cultured with RAJI cells and Rituximab (0.5 μg/mL, MabThera, Roche) or Ofatumumab (0.05 μg/mL, Arzerra, Novartis).

[5] = tested on: NK cells; assay: NK cells co-cultured with PMA-activated autologous monocytes: intracellular ROS and K562 lysis; details: 100 U/mL catalase; intracellular ROS and K562 lysis
Experimental: as §1
Monocytes were stimulated with 100 ng/ml PMA for 1 min and washed with HBSS (Gibco). Cells were resuspended in HBSS 5% FBS and added to a 96-well Optiplate (Perkin Elmer) containing HBSS 5% FBS and Luminol (56 μM; Sigma). Luminescence was measured immediately using a EnSpire plate reader (Perkin Elmer).
For detection of intracellular ROS levels, for NK cells CellROX™ Deep Red Reagent (Invitrogen) were used. Briefly, NK cells were stained with 2.5 μM CellROX solution in RPMI for 30 min at 37° C. and then stained for flow cytometry with anti-CD56 and anti-CD3 (both Biolegend).
as §2

In the case of `COC(=O)/C=C/C(=O)OC` [DMF, Dimethyl (E)-butenedioate], the “Lysis of K562 target cells by pre-treated NK cells after H2O2 exposure” value [1] is reported as “comparable protective effects as AUF”, the “Suppressive effect of H2O2 on lymphocyte function (killing, degranulation, IFNγ)” value [1] is reported as “counteracts the suppressive effect of H2O2 on lymphocyte function” and the “Dependence of the protective effect on Nrf2 activation” value [1] is reported as “dependent on Nrf2 activation”. For the same molecule, the “Recognition of autologous tumour cells by TIL (IFNγ production) upon exposure to H2O2” value [2] was “increased recognition of their autologous tumour cells” and the “Influence on Nrf2 target genes in NK cells compared with AUF” value [3] was “comparable influence”.

With `Cc1ccccc1C(=O)N1CCc2cc(-c3nc(NC(=O)Cc4ccc5c(c4)OCO5)sc3C)ccc21` [ML385] the “Effect of ML385 on K562 lysis by DMSO pre-treated control NK cells” value ([1]; 50 μM ML385) was “no effects” and the “Lysis of K562 by NK cells pre-treated with AUF, SUL or DMF in combination with ML385” value ([1]; 50 μM ML385, cells exposed to H2O2) was “significantly reduced”.

In the case of `CC(=O)N[C@@H](CS)C(=O)O` [NAC, N-acetylcysteine], the “Protection of K562 lysis by control NK cells pre-treated with NAC, compared to AUF” value ([1]; 1 h, 5 or 10 mM NAC, increased H2O2 concentrations) is reported as “less protection”.

For “Ofatumumab: antibody therapy targeting CD20”, the “Recognition of antibody-coated RAJI cells by NK cells (killing and CD107a degranulation)” value [4] was “efficient recognition of the target cells”.

`C[S+]([O-])CCCCN=C=S` (racemic) [SUL, 1-Isothiocyanato-4-(methanesulfinyl)butane] was tested, and the “Lysis of K562 target cells by pre-treated NK cells after H2O2 exposure” value [1] was “comparable protective effects as AUF”, the “Suppressive effect of H2O2 on lymphocyte function (killing, degranulation, IFNγ)” value [1] was “counteracts the suppressive effect of H2O2 on lymphocyte function” and the “Dependence of the protective effect on Nrf2 activation” value [1] was “dependent on Nrf2 activation”. The “Recognition of autologous tumour cells by TIL (IFNγ production) upon exposure to H2O2” value [2] was “increased recognition of their autologous tumour cells” and the “Influence on Nrf2 target genes in NK cells compared with AUF” value [3] was “comparable influence”.

For “Rituximab: antibody therapy targeting CD20”, the “Recognition of antibody-coated RAJI cells by NK cells (killing and CD107a degranulation)” value [4] was “efficient recognition of the target cells”.

B1: catalase: an enzyme efficiently converting H2O2 to H2O and O2 (protein, UniProt P04040 2-527, looked up)
Catalase: ADSRDPASDQMQHWKEQRAAQKADVLTTGAGNPVGDKLNVITVGPRGPLLVQDVVFTDEMAHFDRERIPERVVHAKGAGAFGYFEVTHDITKYSKAKVFEHIGKKTPIAVRFSTVAGESGSADTVRDPRGFAVKFYTEDGNWDLVGNNTPIFFIRDPILFPSFIHSQKRNPQTHLKDPDMVWDFWSLRPESLHQVSFLFSDRGIPDGHRHMNGYGSHTFKLVNANGEAVYCKFHYKTDQGIKNLSVEDAARLSQEDPDYGIRDLFNAIATGKYPSWTFYIQVMTFNQAETFPFNPFDLTKVWPHKDYPLIPVGKLVLNRNPVNYFAEVEQIAFDPSNMPPGIEASPDKMLQGRLFAYPDTHRHRLGPNYLHIPVNCPYRARVANYQRDGPMCMQDNQGGAPNYYPNSFGAPEQQPSALEHSIQYSGEVRRFNTANDDNVTQVRAFYVNVLNEEQRKRLCENIAGHLKDAQIFIQKKAVKNFTEVHPDYGSHIQALLDKYNAEKPKNAIHTFVQSGSHLAAREKANL
With B1 the “Lysis of K562 target cells by control NK cells with catalase added before H2O2” value ([1]; catalase added to control NK cells before incubation with H2O2) was “improve the function of the control NK cells in a comparable way to AUF pre-treatment” and the “Difference between activated monocytes or H2O2 treated control NK cells in the presence of catalase” value [5] was “no difference”.
